Laboratory results as given in US20110105382A1, “CALMODULIN-BINDING PEPTIDES THAT REDUCE CELL PROLIFERATION IN CANCER AND SMOOTH MUSCLE PROLIFERATION DISEASES” (priority 2007, published 2011).
“Also recorded” adds a separate entry of the source. Where no end group is shown, it is not given here.

Key:
[1] = system: cyclins E1/E2 double knockout MEF; assay: Cell cycle analysis, cyclin E1/E2 double knockout MEF; type: cell-based, mouse; conditions: starved cells, serum stimulation 10% FBS, 24 hr (peptide) or 20 hr (CMZ)
Description: (§1) Cell culture conditions The isolation and culture of primary mouse aortic VSMC have was performed according to methods previously described (Afroze T, Yang L L, Wang C, Gros R, Kalair W, Hogue A N, Mungrue I N, Zhu Z, Husain M. Calcineurin-independent regulation of plasma membrane Ca2+ ATPase-4 in the vascular smooth muscle cell cycle. Am J Physiol Cell Physiol. July 2003; 285(1):C88-95). VSMCs were grown in DMEM (GIBCO/BRL, Gaithersburg, Md.) supplemented with 10% FBS (Hyclone, Logan, Utah), 50 ng/mL platelet-derived growth factor (PDGF, Sigma) and 1% penicillin-streptomycin (GIBCO/BRL). For serum starvation, cells were grown to 60% to 70% confluence, washed twice with PBS, and cultured in starvation medium (0.25% FBS-supplemented DMEM) for 72 hours to achieve Go arrest. Progression to G1/S was brought about by stimulation with 10% FBS and 50 ng/mL PDGF for 24 hours. Cells and reagents for primary human aortic VSMC culture were purchased from Cascade Biologics. Human VSMC(C-007-5C) were grown in Medium 231 with Smooth Muscle Growth Supplement (SMGS) S-007-25 and 1% penicillin-streptomycin (GIBCO/BRL). […]
Flow cytometric analysis. […] Cells were counted in a flow cytometer (FACScan, BD Biosciences), and G0/G1, S, and G2/M cell percentages were calculated with Cell Quest software (BD Biosciences).

[2] = system: HeLa (human cervical cancer cell); assay: MTT proliferation assay, HeLa; type: cell-based; conditions: 100 μM, MTT after 2 days
Description: (§2) Cell culture conditions The isolation and culture of primary mouse aortic VSMC have was performed according to methods previously described (Afroze T, Yang L L, Wang C, Gros R, Kalair W, Hogue A N, Mungrue I N, Zhu Z, Husain M. Calcineurin-independent regulation of plasma membrane Ca2+ ATPase-4 in the vascular smooth muscle cell cycle. Am J Physiol Cell Physiol. July 2003; 285(1):C88-95). VSMCs were grown in DMEM (GIBCO/BRL, Gaithersburg, Md.) supplemented with 10% FBS (Hyclone, Logan, Utah), 50 ng/mL platelet-derived growth factor (PDGF, Sigma) and 1% penicillin-streptomycin (GIBCO/BRL). For serum starvation, cells were grown to 60% to 70% confluence, washed twice with PBS, and cultured in starvation medium (0.25% FBS-supplemented DMEM) for 72 hours to achieve Go arrest. Progression to G1/S was brought about by stimulation with 10% FBS and 50 ng/mL PDGF for 24 hours. Cells and reagents for primary human aortic VSMC culture were purchased from Cascade Biologics. Human VSMC(C-007-5C) were grown in Medium 231 with Smooth Muscle Growth Supplement (SMGS) S-007-25 and 1% penicillin-streptomycin (GIBCO/BRL). Cyclin E1/E2 double knockout mouse embryonic fibroblasts (MEF) were kindly provided by Dr. P. Sicinski (Harvard Medical School), and maintained in DMEM with 10% FBS (Hyclone) and 1% penicillin-streptomycin (GIBCO/BRL). Go arrest of MEF was achieved by starvation for 48 h in medium lacking FBS. Mouse embryonic fibroblasts (MEF) were maintained for normal culture in 10% FBS-supplemented DMEM. For the starvation of MEF, cells were cultured in starvation medium without FBS for 48 hours to achieve Go arrest. HeLa (human cervical cancer cell), Saos-2 (human osteosarcoma cell) and A549 (human lung cancer cell) were cultured in 10% FBS-supplemented DMEM.
(§3) MTT colorimetric survival assay. Active mitochondria of living cells can cleave MTT to produce formazan, the amount of which is directly proportional to the number of living cells. Cell survival was assessed (Denizot, 1986). Cells in 96-well plate were washed two times with PBS followed by 4 hr of incubation at 37° C. with 1 mg/ml of MTT (in phenol red free DMEM supplemented with 2 mM of L-glutamine & 1 mM of sodium pyruvate) in a reaction volume of 100 μl. After removing MTT solution, DMSO was added to dissolve formazan crystals. Plate was shaken for 5 min at 55° C. for complete dissolve. Dye absorbance in viable cells was measured at 570 nm with 630 nm as a reference wavelength. All experiments were repeated at least 3 times, and each experimental condition was repeated in at least quadruplicate wells in each experiment.

[3] = system: Saos-2 (human osteosarcoma); assay: MTT proliferation assay, Saos-2; type: cell-based; conditions: 100 μM, MTT after 2 days
Description: as §2, §3

[4] = system: MEF; assay: 3H-thymidine incorporation assay, MEF; type: cell-based, mouse; conditions: 10 and 100 μM for 1.0 h, 48 h after treatment; listed as TAT-CBS
Description: as §1, with “Biologics.” for “Biologics. Human VSMC(C-007-5C) were grown in Medium 231 with Smooth Muscle Growth Supplement (SMGS) S-007-25 and 1% penicillin-streptomycin (GIBCO/BRL).”
(§4) ^3H-thymidine incorporation proliferation assay. […] Cells were grown at 37° C. and analyzed at 24, 48 and 72 h after ^3H-thymidine exposure. […] Solubilized contents of wells were removed and added to 2.5 ml of scintillation fluid (ReadySafe™ Cocktail, Beckman Coulter, Product No. 141349). Radioactivity was measured in a scintillation counter (Beckman Coulter, LS 6500).

[5] = system: primary human aortic VSMC; assay: 3H-thymidine incorporation assay, human aortic VSMC; type: cell-based; conditions: 10 and 100 μM for 1.0 h, 72 h after treatment; listed as TAT-CBS
Description: as §1, with “Biologics.” for “Biologics. Human VSMC(C-007-5C) were grown in Medium 231 with Smooth Muscle Growth Supplement (SMGS) S-007-25 and 1% penicillin-streptomycin (GIBCO/BRL).”
as §4

[6] = system: primary mouse aortic SMC; type: cell-based
Description: as §2, §3
Nucleofection. For peptides delivery via Nucleofector technology, 1×10^6 cells were harvested, resuspended in 100 μl of Nucleofector solution (for VSMC: Cat. No. VPI-1004; for MEF: Cat. No.: VPD-1005, both provided by Amaxa GmBH, Köln, Germany) and mixed with 100 nmole (in 10 μl) of each peptide. The cell solution was transferred into a kit-provided cuvette and positioned into a Nucleofector device. Subsequently, the transfection was performed with a single pulse using the preprogrammed nucleofection program (A-33 for VSMC; T-20 for MEF) according to the manufacturer's recommendation. Following nucleofection, the cells were transferred into 96-well plate (2K or 5K cells per well for MTT assay) or T25 culture flasks (for FACS analysis) containing pre-warmed stem cell medium using kit-provided plastic pipettes to prevent cell damage and the cells were cultured at 37° C. in 5% CO2.

[7] = system: Cyclin E1/E2 KO MEF; assay: 3H-thymidine incorporation assay, Cyclin E1/E2 KO MEF; type: cell-based, mouse; conditions: 10 and 100 μM for 1.0 h, 48 h after treatment; listed as TAT-CBS
Description: as §1, with “Biologics.” for “Biologics. Human VSMC(C-007-5C) were grown in Medium 231 with Smooth Muscle Growth Supplement (SMGS) S-007-25 and 1% penicillin-streptomycin (GIBCO/BRL).”
as §4

[8] = system: A549 (human lung cancer cell); assay: MTT proliferation assay, A549; type: cell-based; conditions: 100 μM, MTT after 2 days
Description: as §2, §3

Row | Molecule | cell cycle progression into S phase, cyclins E1/E2 double knockout MEF [1] | proliferation of HeLa cells (MTT) [2] | proliferation of Saos-2 cells (MTT) [3] | 3H-thymidine incorporation (S-phase entry), MEF [4] | 3H-thymidine incorporation (S-phase entry), human aortic VSMC [5] | IC50 [6] [µM] | maximum level of inhibition of VSMC proliferation [6] [%] | 3H-thymidine incorporation (S-phase entry), Cyclin E1/E2 KO MEF [7] | proliferation of A549 cells (MTT) [8]
1 | Clc1ccc(C(c2ccc(Cl)cc2)n2cc[n+](CC(OCc3ccc(Cl)cc3Cl)c3ccc(Cl)cc3Cl)c2)cc1 (stereo not drawn) [calmidazolium] | did inhibit |  |  |  |  |  |  |  | 
2 | RRRQRRKKRGGGAEFSARSRKRKANVTVFLQD [TAT-SEQ ID NO:2] |  | inhibited | inhibited | observed; also recorded: dose-dependent, anti-proliferative effect | dose-dependent inhibitory effect; also recorded: inhibited; also recorded: dose-dependent, anti-proliferative effect | 8.89 ± 1.24 | 70 | not and not able to produce an anti-proliferative effect | inhibited
